Read-outs that look alike come from different tables or passages of the source.
Key:
[1] = system: A-549; assay: cells; conditions: Homo sapiens, A549, 48 h
How it was run: (§1)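 Colorimetric SRB read (490 nm) on triplicate wells after 48 h at 37 °C, 5% CO2. Dose range 10 to 10^−8 μg/ml; 5×10^3 cells/well pre-attached 18 h.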

[2] = system: HT-29; assay: cells; conditions: Homo sapiens, HT-29, 48 h
How it was run: as §1

[3] = system: LoVo; assay: cells; conditions: Homo sapiens, LoVo, 48 h
How it was run: as §1

[4] = system: DU-145; assay: Inhibition of cells growth by colorimetric assay (SRB); conditions: Homo sapiens, DU-145, 48 h
How it was run: as §1

[5] = system: HeLa-APL; assay: as above; conditions: Homo sapiens, 48 h
How it was run: as §1

[6] = system: HeLa; assay: as above; conditions: Homo sapiens, HeLa, 48 h
How it was run: as §1

[7] = system: IGROV-1; assay: as above; conditions: Homo sapiens, IGROV-1, 48 h
How it was run: as §1

[8] = system: IGROV-ET; assay: as above; conditions: Homo sapiens, 48 h
How it was run: as §1

[9] = system: K-562; assay: as above; conditions: Homo sapiens, K562, 48 h
How it was run: as §1

[10] = system: LNCaP; assay: as above; conditions: Homo sapiens, LNCaP, 48 h
How it was run: as §1

[11] = system: LoVo-Dox; assay: as above; conditions: Homo sapiens, 48 h
How it was run: as §1

[12] = system: PANC-1; assay: as above; conditions: Homo sapiens, PANC-1, 48 h
How it was run: as §1

[13] = system: SK-BR-3; assay: as above; conditions: Homo sapiens, SK-BR-3, 48 h
How it was run: as §1

[14] = system: SK-MEL-28; assay: as above; conditions: Homo sapiens, SK-MEL-28, 48 h
How it was run: as §1

C=CCN1[C@@H]2c3c(cc(C)c(OC)c3O)C[C@H]1[C@H](C#N)N1C2[C@@H]2SC[C@]3(NCCc4cc(OC(=O)OC(C)(C)C)c(OC)cc43)C(=O)OC[C@H]1c1c3c(c(C)c(OC(=O)CCCCCCC)c12)OCO3 (stereo partly drawn) [compound 48]
GI50 ([1]; read-out: A549 GI50): 8100 nM | CC50 ([1]; read-out: A549 LC50): 10200 nM | IC (TGI) ([1]; read-out: A549 TGI): 10200 nM | GI50 ([2]; read-out: HT29 GI50): 6710 nM | CC50 ([2]; read-out: HT29 LC50): 10200 nM | IC (TGI) ([2]; read-out: HT29 TGI): 10200 nM | GI50 ([3]; read-out: LOVO GI50): 4010 nM | CC50 ([3]; read-out: LOVO LC50): 10200 nM | IC (TGI) ([3]; read-out: LOVO TGI): 10200 nM | GI50 ([4]; read-out: DU145 GI50): 2550 nM | CC50 ([4]; read-out: DU145 LC50): 10200 nM | IC (TGI) ([4]; read-out: DU145 TGI): 6260 nM | GI50 ([5]; read-out: HELA-APL GI50): 1870 nM | CC50 ([5]; read-out: HELA-APL LC50): 7870 nM | IC (TGI) ([5]; read-out: HELA-APL TGI): 3830 nM | GI50 ([6]; read-out: HELA GI50): 2170 nM | CC50 ([6]; read-out: HELA LC50): 10200 nM | IC (TGI) ([6]; read-out: HELA TGI): 5110 nM | GI50 ([7]; read-out: IGROV GI50): 3520 nM | CC50 ([7]; read-out: IGROV LC50): 10200 nM | IC (TGI) ([7]; read-out: IGROV TGI): 10200 nM | GI50 ([8]; read-out: IGROV-ET GI50): 3720 nM | CC50 ([8]; read-out: IGROV-ET LC50): 10200 nM | IC (TGI) ([8]; read-out: IGROV-ET TGI): 10200 nM | GI50 ([9]; read-out: K562 GI50): 515 nM | CC50 ([9]; read-out: K562 LC50): 10200 nM | IC (TGI) ([9]; read-out: K562 TGI): 2730 nM | GI50 ([10]; read-out: LNCAP GI50): 1670 nM | CC50 ([10]; read-out: LNCAP LC50): 6310 nM | IC (TGI) ([10]; read-out: LNCAP TGI): 3240 nM | GI50 ([11]; read-out: LOVO-DOX GI50): 10200 nM | CC50 ([11]; read-out: LOVO-DOX LC50): 10200 nM | IC (TGI) ([11]; read-out: LOVO-DOX TGI): 10200 nM | GI50 ([12]; read-out: PANC-1 GI50): 4420 nM | CC50 ([12]; read-out: PANC-1 LC50): 10200 nM | IC (TGI) ([12]; read-out: PANC-1 TGI): 10200 nM | GI50 ([13]; read-out: SK-BR3 GI50): 682 nM | CC50 ([13]; read-out: SK-BR3 LC50): 10200 nM | IC (TGI) ([13]; read-out: SK-BR3 TGI): 4000 nM | GI50 ([14]; read-out: MEL-28 GI50): 3190 nM | CC50 ([14]; read-out: MEL-28 LC50): 10200 nM | IC (TGI) ([14]; read-out: MEL-28 TGI): 10200 nM

COc1c(C)cc2c(c1O)[C@@H]1C3[C@@H]4SC[C@]5(NCCc6c5[nH]c5ccccc65)C(=O)OC[C@@H](c5c6c(c(C)c(OC(C)=O)c54)OCO6)N3[C@@H](C#N)[C@H](C2)N1C (stereo partly drawn) [compound 22]
GI50 ([1]; read-out: GI50 A549): 26.7 nM | CC50 ([1]; read-out: LC50 A549): 131 nM | IC (TGI) ([1]; read-out: TGI A549): 59 nM | GI50 ([2]; read-out: GI50 HT29): 29.7 nM | CC50 ([2]; read-out: LC50 HT29): 13100 nM | IC (TGI) ([2]; read-out: TGI HT29): 82.5 nM | GI50 ([3]; read-out: GI50 LOVO): 20.3 nM | CC50 ([3]; read-out: LC50 LOVO): 96.5 nM | IC (TGI) ([3]; read-out: TGI LOVO): 41.1 nM | GI50 ([4]; read-out: GI50 DU145): 29.6 nM | CC50 ([4]; read-out: LC50 DU145): 1310 nM | IC (TGI) ([4]; read-out: TGI DU145): 86.8 nM | GI50 ([5]; read-out: GI50 HELA-APL): 21.1 nM | CC50 ([5]; read-out: LC50 HELA-APL): 93.5 nM | IC (TGI) ([5]; read-out: TGI HELA-APL): 44.4 nM | GI50 ([6]; read-out: GI50 HELA): 33.2 nM | CC50 ([6]; read-out: LC50 HELA): 158 nM | IC (TGI) ([6]; read-out: TGI HELA): 56.6 nM | GI50 ([7]; read-out: GI50 IGROV): 19.1 nM | CC50 ([7]; read-out: LC50 IGROV): 104 nM | IC (TGI) ([7]; read-out: TGI IGROV): 44.6 nM | GI50 ([8]; read-out: GI50 IGROV-ET): 52.2 nM | CC50 ([8]; read-out: LC50 IGROV-ET): 131 nM | IC (TGI) ([8]; read-out: TGI IGROV-ET): 104 nM | GI50 ([9]; read-out: GI50 K562): 5.92 nM | CC50 ([9]; read-out: LC50 K562): 840 nM | IC (TGI) ([9]; read-out: TGI K562): 42.4 nM | GI50 ([10]; read-out: GI50 LNCAP): 6.15 nM | CC50 ([10]; read-out: LC50 LNCAP): 55 nM | IC (TGI) ([10]; read-out: TGI LNCAP): 21.1 nM | GI50 ([11]; read-out: GI50 LOVO-DOX): 87.4 nM | CC50 ([11]; read-out: LC50 LOVO-DOX): 13100 nM | IC (TGI) ([11]; read-out: TGI LOVO-DOX): 524 nM | GI50 ([12]; read-out: GI50 PANC-1): 29.6 nM | CC50 ([12]; read-out: LC50 PANC-1): 854 nM | IC (TGI) ([12]; read-out: TGI PANC-1): 73.8 nM | GI50 ([13]; read-out: GI50 SK-BR3): 5.77 nM | CC50 ([13]; read-out: LC50 SK-BR3): 120 nM | IC (TGI) ([13]; read-out: TGI SK-BR3): 22.3 nM | GI50 ([14]; read-out: GI50 MEL-28): 30.2 nM | CC50 ([14]; read-out: LC50 MEL-28): 102 nM | IC (TGI) ([14]; read-out: TGI MEL-28): 55.5 nM
